Assays:
Assay type in all cases: in vivo
[1] = tested on: tomato plants (cv. Supersweet 100); test: Adenosine by irrigation: vegetative and reproductive growth of tomato plants; conditions: irrigation daily
Description: This example describes the increase in fruit production by tomato plants (cv. Supersweet 100), achieved via application of adenosine by irrigation. Adenosine (9-beta-D-adenosine) obtained from Sigma Chemical Co. (Catalog No. A9251) was applied in a sufficient amount of distilled water to move the material into the root zone of ‘Supersweet 100’ tomato plants. Plants receiving treatments 2 and 3 were treated once every 10 days. Plants receiving treatments 4, 5, 6, and 7 were treated daily. The total amount of cytokinin or adenosine received by plants in each treatment by the end of experiment (75 days after planting) is given in parenthesis in the Table 1-1 below. The IPA concentration of the vermicompost tea was determined by radioimmunoassay.

[2] = tested on: 'Fina Sodea' Clementine mandarin trees; test: Adenosine by foliar spray (canopy application): fruit number, yield and value of mandarin trees
Description: This example describes the increase in the number and yield of commercially valuable fruit of Clementine mandarin trees achieved by canopy application of adenosine. Adenosine (9-beta-D-adenosine) obtained from Sigma Chemical Co. (Catalog No. A9251) was applied (25 mg/L in 250 gallons of water per acre; 23.66 g/acre) with a 400 psi handgun sprayer one time at maximum peel thickness, which marks the end of the cell division stage of citrus fruit development, to ‘Fina Sodea’ Clementine mandarin trees.

[3] = tested on: 'Hass' avocado trees bearing an on-crop; test: Trunk injection: spring bloom (bud break) of on-crop avocado trees; conditions: for Floral (with fruit), No. of shoots per 100 nodes / Floral (w/o fruit), No. of shoots per 100 nodes / Determinate Floral, No. of shoots per 100 nodes / Indeterminate Floral, No. of shoots per 100 nodes / Floral, No. of shoots per 100 nodes: 1 g/tree trunk injection in Jan; for Floral (with fruit), No. of shoots per 100 nodes: branches with fruit; for Floral (w/o fruit), No. of shoots per 100 nodes: branches without fruit; for Determinate Floral, No. of shoots per 100 nodes / Indeterminate Floral, No. of shoots per 100 nodes / Floral, No. of shoots per 100 nodes: counted at spring bloom; for Floral, No. of shoots per 100 nodes: total floral shoots
Description: This example describes the use of adenosine to increase spring bud break of ‘Hass’ avocado trees to increase floral intensity and avocado production. Increased bud break was achieved via trunk injection of adenosine (9-beta-D-adenosine) obtained from Sigma Chemical Co. (Catalog No. A9251), alone or with a plant growth regulator. The following treatments were injected (1 g/tree) in mid-January into the trunk of on-crop ‘Hass’ avocado trees in a commercial orchard in Irvine, Calif.: (1) adenosine (Sigma); (2) 6-BA (Sigma); (3) GA3 (ProGibb 40%, Valent BioSciences Corp.); (4) TIBA (Sigma), and (5) TIBA plus adenosine. Each material was supplied at the rate of 1 g per tree dissolved in 50 to 60 ml distilled water using two plastic syringes per tree. There were five individual tree replicates per treatment, including (6) untreated on-crop control trees. For each tree, branches (12 inches long), 1 with fruit and 1 branch without fruit in each of the four tree quadrants, were tagged.

| SMILES | # Fruit, average value per plant ([1]; total 0.35 μg by 75 days) | # Fruiting shoots, average value per plant ([1]; total 0.35 μg by 75 days) | # Leaves, average value per plant ([1]; total 0.35 μg by 75 days) | # Veg. shoots, average value per plant ([1]; total 0.35 μg by 75 days) | Fruit diameter ([1]; total 0.35 μg by 75 days) | Main Shoot (mm), average value per plant ([1]; total 0.35 μg by 75 days) [mm] | Tap Root (mm), average value per plant ([1]; total 0.35 μg by 75 days) [mm] | Floral (with fruit), No. of shoots per 100 nodes [3] | Floral (w/o fruit), No. of shoots per 100 nodes [3] [shoots per 100 nodes] | Determinate Floral, No. of shoots per 100 nodes [3] | Indeterminate Floral, No. of shoots per 100 nodes [3] [shoots per 100 nodes] | Floral, No. of shoots per 100 nodes [3] | further results |
| --- | --- | --- | --- | --- | --- | --- | --- | --- | --- | --- | --- | --- | --- |
| Nc1ncnc2c1ncn2[C@@H]1O[C@H](CO)[C@@H](O)[C@H]1O [Adenosine, 9-beta-D-adenosine] | 15 a | 17.60 a | 111 a | 38.00 a | 24.13 a mm | 74.00 | 28.00 | 8 abc shoots per 100 nodes | 10 | 3 ab shoots per 100 nodes | 7 | 10 ab shoots per 100 nodes | effect on length of the main shoot or the tap root ([1]; total 0.35 μg by 75 days): did not significantly alter; more leaves than untreated control plants ([1]; total 0.35 μg by 75 days): 2.85 fold; net increase in the number of fruit per plant over the untreated control ([1]; total 0.35 μg by 75 days): 87.5%; increase of average size of individual tomato fruit over untreated control ([1]; total 0.35 μg by 75 days, transverse diameter): 61%; Total kg/tree, Medium ([2]; 25 mg/L once at maximum peel thickness, 3-year cumulative yield, diameter 50.81-57.15 mm): 37.00 kg/tree; net increase in total fruit number ([2]; adenosine applied at maximum peel thickness, numerical (non-significant)): 12,460 fruit/200 trees/acre/3 years; effect on fruit quality ([2]; any year of the 3-year study): did not have a negative effect; juice acid of fruit from treated trees ([2]; year three of the study, P=0.0163): significantly reduced; total soluble solids to acid ratio of the juice ([2]; year three of the study, P=0.0570): higher; number of floral shoots compared to the untreated on-crop control trees ([3]; single trunk injection in January): not significantly different |
| C=C1C[C@]23C[C@@]1(O)CC[C@H]2[C@@]12C=C[C@H](O)[C@@](C)(C(=O)O1)[C@H]2[C@@H]3C(=O)O [GA3, gibberrillic acid] | – | – | – | – | – | – | – | 6 bc shoots per 100 nodes | 8 | 2 b shoots per 100 nodes | 6 | 7 b shoots per 100 nodes | – |
| CC(C)=CCNc1ncnc2nc[nH]c12 [IPA, isopentenyladenine] | 10 bc | 11.60 cd | 87 c | 30.80 c | 19.92 c mm | 81.00 | 20.25 | – | – | – | – | – | # Fruit, average value per plant ([1]; total 0.035 μg by 75 days): 13 ab; # Fruiting shoots, average value per plant ([1]; total 0.035 μg by 75 days): 12.40 bc; # Leaves, average value per plant ([1]; total 0.035 μg by 75 days): 99 abc; # Veg. shoots, average value per plant ([1]; total 0.035 μg by 75 days): 30.20 c; Fruit diameter ([1]; total 0.035 μg by 75 days): 21.81 b mm; Main Shoot (mm), average value per plant ([1]; total 0.035 μg by 75 days): 73.75 mm; Tap Root (mm), average value per plant ([1]; total 0.035 μg by 75 days): 25.50 mm |
| O=C(O)c1cc(I)cc(I)c1I [TIBA, 2,3,5-triiodobenzoic acid] | – | – | – | – | – | – | – | 11 ab shoots per 100 nodes | 8 | 1 b shoots per 100 nodes | 8 | 9 b shoots per 100 nodes | – |

From patent US10321684B2, “Use of 9-beta-D-adenosine to increase crop production” (The Regents of the University of California, priority 2009, dated 2019)
